The values below come from patent US8802700B2 (Vertex Pharmaceuticals Incorporated, priority 2010, dated 2014).

The structures appear in SMILES notation.

The target in this test is T1, ΔF508-CFTR (Homo sapiens, UniProt P13569, DEL508-508).
T1 construct: expressed in transfected cells
The experiment in a line: Membrane potential optical assay (FRET voltage-sensor dyes, VIPR), identification of potentiator compounds. It is filed as cell-based. To be noted: Table 3; assay not given; read-out: % Activity (% Efficacy, relative efficacy). The method in brief: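 Potentiator screen measured membrane potential via FRET between CC2-DMPE donor and DiSBAC2(3), read on VIPR II. Compound went in with the first addition of chloride-free gluconate bath; cells were ΔF508-CFTR-expressing NIH3T3 mouse fibroblasts, temperature-corrected at 27 °C for 24 h.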

T1 sequence (P13569 with tags, fused parts or gaps DEL508-508): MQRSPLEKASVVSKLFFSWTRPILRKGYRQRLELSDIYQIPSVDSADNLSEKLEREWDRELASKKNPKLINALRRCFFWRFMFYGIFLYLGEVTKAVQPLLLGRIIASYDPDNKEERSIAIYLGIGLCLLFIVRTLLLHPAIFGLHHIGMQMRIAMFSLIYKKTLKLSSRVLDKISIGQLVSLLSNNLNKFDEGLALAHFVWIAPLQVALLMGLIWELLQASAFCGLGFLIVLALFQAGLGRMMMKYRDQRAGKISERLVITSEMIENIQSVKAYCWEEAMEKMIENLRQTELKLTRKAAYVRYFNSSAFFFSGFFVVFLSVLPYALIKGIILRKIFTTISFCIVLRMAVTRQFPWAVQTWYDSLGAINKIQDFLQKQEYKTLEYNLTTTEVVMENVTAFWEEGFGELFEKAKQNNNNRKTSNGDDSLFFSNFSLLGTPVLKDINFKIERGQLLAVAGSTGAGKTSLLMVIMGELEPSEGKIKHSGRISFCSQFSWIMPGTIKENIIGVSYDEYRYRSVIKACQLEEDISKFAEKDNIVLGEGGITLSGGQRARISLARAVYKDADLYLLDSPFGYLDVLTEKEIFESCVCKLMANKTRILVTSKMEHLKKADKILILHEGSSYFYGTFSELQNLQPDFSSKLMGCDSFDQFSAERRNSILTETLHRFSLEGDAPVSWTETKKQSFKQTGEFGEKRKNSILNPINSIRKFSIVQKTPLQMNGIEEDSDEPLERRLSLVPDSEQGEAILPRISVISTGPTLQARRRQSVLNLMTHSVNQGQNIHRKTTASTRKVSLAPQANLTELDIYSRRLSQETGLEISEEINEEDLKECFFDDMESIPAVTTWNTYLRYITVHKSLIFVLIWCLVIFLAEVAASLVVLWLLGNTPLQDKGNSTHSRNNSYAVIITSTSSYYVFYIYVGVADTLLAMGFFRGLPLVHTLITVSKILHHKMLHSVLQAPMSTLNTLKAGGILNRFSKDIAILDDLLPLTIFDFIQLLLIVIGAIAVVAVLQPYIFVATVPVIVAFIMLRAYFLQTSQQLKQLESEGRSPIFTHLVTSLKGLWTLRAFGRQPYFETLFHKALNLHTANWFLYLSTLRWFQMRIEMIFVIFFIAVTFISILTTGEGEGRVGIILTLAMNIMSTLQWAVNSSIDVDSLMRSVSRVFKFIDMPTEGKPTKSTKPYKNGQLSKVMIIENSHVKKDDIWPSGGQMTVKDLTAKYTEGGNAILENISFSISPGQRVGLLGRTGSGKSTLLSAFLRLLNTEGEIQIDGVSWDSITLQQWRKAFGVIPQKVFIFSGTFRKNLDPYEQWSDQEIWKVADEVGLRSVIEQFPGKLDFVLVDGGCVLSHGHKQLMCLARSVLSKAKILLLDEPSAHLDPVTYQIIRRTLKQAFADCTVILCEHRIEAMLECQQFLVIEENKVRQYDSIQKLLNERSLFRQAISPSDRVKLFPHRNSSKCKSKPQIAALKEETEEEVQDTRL

Turning to `O=C(Nc1ccc(N2CCC[C@@H]2C(=O)O)cc1C(F)(F)F)c1c[nH]c2ccccc2c1=O` [Compound 698, (R)-1-[4-[(4-oxo-1H-quinolin-3-yl)carbonylamino]-3-(trifluoromethyl)phenyl]pyrrolidine-2-carboxylic acid], the Emax lay within 25 to 100%.

For `O=C(Nc1ccc(C(F)(F)F)c(O)c1)c1c[nH]c2cccc(O)c2c1=O` [Compound 700, 5-hydroxy-N-[3-hydroxy-4-(trifluoromethyl)phenyl]-4-oxo-1H-quinoline-3-carboxamide], the Emax is 25 to 100%.

Consider `Cc1cccc2[nH]cc(C(=O)Nc3ccc(OC(C)C)c(O)c3)c(=O)c12` [Compound 701, N-(3-hydroxy-4-isopropoxy-phenyl)-5-methyl-4-oxo-1H-quinoline-3-carboxamide], for which the Emax was 25 to 100%.

Regarding `CC(C)(C)c1cc(C(C)(C)C)c(NC(=O)c2c[nH]c3ccc(O)cc3c2=O)cc1O` [Compound 702, 6-hydroxy-N-(5-hydroxy-2,4-ditert-butyl-phenyl)-4-oxo-1H-quinoline-3-carboxamide], the Emax lay in the range of 25 to 100%.

For `Cc1ccc2c(=O)c(C(=O)Nc3cc4[nH]ccc4cc3C(C)(C)C)c[nH]c2c1` [Compound 704, 7-methyl-4-oxo-N-(5-tert-butyl-1H-indol-6-yl)-1H-quinoline-3-carboxamide], the Emax lay within 25 to 100%.

For the molecule `O=C(Nc1ccc(N2CC[C@@H](O)C2)cc1C(F)(F)F)c1c[nH]c2ccccc2c1=O` [Compound 705, (R)-N-(4-(3-hydroxypyrrolidin-1-yl)-2-(trifluoromethyl)phenyl)-4-oxo-1,4-dihydroquinoline-3-carboxamide], the Emax fell in the range of 25 to 100%.

As to `CC1(c2cc(F)c(NC(=O)c3c[nH]c4cccc(C(F)(F)F)c4c3=O)cc2O)CCCCC1` [Compound 706, N-[2-fluoro-5-hydroxy-4-(1-methylcyclohexyl)-phenyl]-4-oxo-5-(trifluoromethyl)-1H-quinoline-3-carboxamide], the Emax is more than 100%.

As for `CC(C)(C)c1ccc(NC(=O)c2c[nH]c3ccccc3c2=O)cc1N1CCCC1` [Compound 707, 4-oxo-N-(3-pyrrolidin-1-yl-4-tert-butyl-phenyl)-1H-quinoline-3-carboxamide], the Emax fell in the range of 25 to 100%.

Consider `O=C(Nc1csc(C(F)(F)F)c1-c1ccccc1)c1c[nH]c2ccccc2c1=O` [Compound 708, 4-oxo-N-[4-phenyl-5-(trifluoromethyl)-3-thienyl]-1H-quinoline-3-carboxamide], for which the Emax is 25 to 100%.

Take `COc1cc2c(=O)c(C(=O)Nc3cc(O)c(C(C)(C)C)cc3C(C)(C)C)c[nH]c2cc1F` [Compound 709, 7-fluoro-N-(5-hydroxy-2,4-ditert-butyl-phenyl)-6-methoxy-4-oxo-1H-quinoline-3-carboxamide]: the Emax is more than 100%.

Take `CN1CCC(C)(C)c2ccc(NC(=O)c3c[nH]c4ccccc4c3=O)cc21` [Compound 710, 4-oxo-N-(1,4,4-trimethyl-2,3-dihydroquinolin-7-yl)-1H-quinoline-3-carboxamide]: the Emax was 25 to 100%.

`O=C(Nc1cc(C(=O)O)c2cc[nH]c2c1)c1c[nH]c2ccccc2c1=O` [Compound 711, 6-[(4-oxo-1H-quinolin-3-yl)carbonylamino]-1H-indole-4-carboxylic acid]: the Emax was in the range of 25 to 100%.

Turning to `C[C@H]1CCCCN1c1ccc(NC(=O)c2c[nH]c3ccccc3c2=O)c(C(F)(F)F)c1` [Compound 713, (S)-N-(4-(2-methylpiperidin-1-yl)-2-(trifluoromethyl)phenyl)-4-oxo-1,4-dihydroquinoline-3-carboxamide], the Emax is more than 100%.

Take `C[C@H]1CCCN1c1ccc(NC(=O)c2c[nH]c3ccc(F)cc3c2=O)c(C(F)(F)F)c1` [Compound 714, (S)-6-fluoro-N-(4-(2-methylpyrrolidin-1-yl)-2-(trifluoromethyl)phenyl)-4-oxo-1,4-dihydroquinoline-3-carboxamide]: the Emax is 25 to 100%.

`COC(=O)[C@@H]1CCCCN1c1ccc(NC(=O)c2c[nH]c3ccccc3c2=O)c(C(F)(F)F)c1` [Compound 715, (S)-methyl 1-(4-(4-oxo-1,4-dihydroquinoline-3-carboxamido)-3-(trifluoromethyl)phenyl)piperidine-2-carboxylate]: the Emax lay in the range of 25 to 100%.

Turning to `O=C(Nc1ccc(C(F)(F)F)c(O)c1)c1c[nH]c2c(Cl)cccc2c1=O` [Compound 716, 8-chloro-N-[3-hydroxy-4-(trifluoromethyl)phenyl]-4-oxo-1H-quinoline-3-carboxamide], the Emax lay in the range of 25 to 100%.

With `COc1cc(NC(=O)c2c[nH]c3ccccc3c2=O)cc2ccccc12` [Compound 717, N-(4-methoxy-2-naphthyl)-4-oxo-1H-quinoline-3-carboxamide], the Emax fell in the range of 25 to 100%.

Regarding `CC(C)(C)c1cc(C(C)(C)C)c(NC(=O)c2c[nH]c3c(F)ccc(F)c3c2=O)cc1O` [Compound 718, 5,8-difluoro-N-(5-hydroxy-2,4-ditert-butyl-phenyl)-4-oxo-1H-quinoline-3-carboxamide], the Emax is 25 to 100%.
